Measured values: ChEMBL document CHEMBL5465560, “Selectivity Literature for EUbOPEN Chemogenomic Library” (2024)

Assays:
Adenosine receptor A2a = Adenosine receptor A2a (Homo sapiens, UniProt P29274); test: Selectivity interaction (Panel of non-epigenetic targets (kinases, GPCRs, ion channels, and transporters, Eurofins) ) EUB0000271b ADORA2A; details: at 1 µM
[1] = system: Mast/stem cell growth factor receptor Kit (Homo sapiens), P10721 [V559D,T670I]; details: at 10 µM
[2] = target: Cyclin-dependent kinase 13 (Homo sapiens, UniProt Q14004); test: Selectivity interaction (KinomeScan (DiscoverX)) EUB0001079a CDK13; details: at 1 µM
[3] = target: Calcium/calmodulin-dependent protein kinase kinase 2 (Homo sapiens) (UniProt Q96RR4); details: at 10 µM
[4] = target: Epidermal growth factor receptor (Homo sapiens, UniProt P00533); details: at 10 µM
[5] = target: Protein-tyrosine kinase 6 (Homo sapiens, UniProt Q13882); details: at 10 µM
[6] = target: T1, Histone-lysine N-methyltransferase NSD3 (Homo sapiens) (UniProt Q9BZ95); test: Selectivity interaction (Transferase panel (protein, RNA, and DNA methyltransferases. and EP300 (acetyltransferase))) EUB0000270b NSD3
T1 sequence (whole entry): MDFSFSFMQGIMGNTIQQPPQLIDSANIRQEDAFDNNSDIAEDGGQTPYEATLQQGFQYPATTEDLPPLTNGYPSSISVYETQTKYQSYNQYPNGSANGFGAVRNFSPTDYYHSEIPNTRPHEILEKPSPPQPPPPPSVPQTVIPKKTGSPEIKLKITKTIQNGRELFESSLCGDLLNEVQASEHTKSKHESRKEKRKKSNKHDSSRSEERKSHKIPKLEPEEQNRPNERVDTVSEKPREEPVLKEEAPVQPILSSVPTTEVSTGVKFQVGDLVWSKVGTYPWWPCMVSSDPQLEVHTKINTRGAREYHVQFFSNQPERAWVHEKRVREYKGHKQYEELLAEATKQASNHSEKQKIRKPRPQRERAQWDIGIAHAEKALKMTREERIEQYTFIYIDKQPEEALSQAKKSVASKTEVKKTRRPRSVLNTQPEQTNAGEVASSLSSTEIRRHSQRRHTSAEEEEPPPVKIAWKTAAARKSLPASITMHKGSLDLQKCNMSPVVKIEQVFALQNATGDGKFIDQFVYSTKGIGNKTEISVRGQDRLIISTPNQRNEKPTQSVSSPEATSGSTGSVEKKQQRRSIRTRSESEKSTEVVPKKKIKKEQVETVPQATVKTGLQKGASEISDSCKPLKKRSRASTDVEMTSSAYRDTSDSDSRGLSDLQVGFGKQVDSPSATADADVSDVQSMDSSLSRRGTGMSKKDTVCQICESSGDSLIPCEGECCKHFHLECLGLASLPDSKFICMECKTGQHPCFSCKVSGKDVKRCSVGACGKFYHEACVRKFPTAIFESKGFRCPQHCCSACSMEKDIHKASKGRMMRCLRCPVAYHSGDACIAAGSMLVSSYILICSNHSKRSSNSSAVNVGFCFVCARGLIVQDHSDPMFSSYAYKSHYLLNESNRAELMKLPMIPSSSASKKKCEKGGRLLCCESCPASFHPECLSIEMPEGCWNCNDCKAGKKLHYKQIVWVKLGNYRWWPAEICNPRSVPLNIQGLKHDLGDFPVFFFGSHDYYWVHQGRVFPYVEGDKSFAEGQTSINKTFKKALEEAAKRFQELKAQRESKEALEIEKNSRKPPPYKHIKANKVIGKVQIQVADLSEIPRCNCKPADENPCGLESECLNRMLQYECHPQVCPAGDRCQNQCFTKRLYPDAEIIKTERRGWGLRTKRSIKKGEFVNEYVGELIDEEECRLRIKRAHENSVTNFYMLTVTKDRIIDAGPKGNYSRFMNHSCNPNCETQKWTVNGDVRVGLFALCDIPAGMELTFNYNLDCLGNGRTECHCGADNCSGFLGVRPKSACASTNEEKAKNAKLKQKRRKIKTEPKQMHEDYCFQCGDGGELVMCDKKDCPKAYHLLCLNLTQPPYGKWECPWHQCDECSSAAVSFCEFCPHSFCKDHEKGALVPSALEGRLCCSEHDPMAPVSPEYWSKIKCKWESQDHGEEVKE

[7] = target: Ribosomal protein S6 kinase alpha-5 (Homo sapiens) (UniProt O75582); test: Selectivity interaction (KinomeScan (DiscoverX)) EUB0000229b RPS6KA5; details: at 10 µM
[8] = target: T2, Serine/threonine-protein kinase PLK4 (Homo sapiens) (UniProt O00444); test: Selectivity interaction (KinomeScan (DiscoverX)) EUB0001049a PLK4; details: at 1 µM
T2 sequence (whole entry): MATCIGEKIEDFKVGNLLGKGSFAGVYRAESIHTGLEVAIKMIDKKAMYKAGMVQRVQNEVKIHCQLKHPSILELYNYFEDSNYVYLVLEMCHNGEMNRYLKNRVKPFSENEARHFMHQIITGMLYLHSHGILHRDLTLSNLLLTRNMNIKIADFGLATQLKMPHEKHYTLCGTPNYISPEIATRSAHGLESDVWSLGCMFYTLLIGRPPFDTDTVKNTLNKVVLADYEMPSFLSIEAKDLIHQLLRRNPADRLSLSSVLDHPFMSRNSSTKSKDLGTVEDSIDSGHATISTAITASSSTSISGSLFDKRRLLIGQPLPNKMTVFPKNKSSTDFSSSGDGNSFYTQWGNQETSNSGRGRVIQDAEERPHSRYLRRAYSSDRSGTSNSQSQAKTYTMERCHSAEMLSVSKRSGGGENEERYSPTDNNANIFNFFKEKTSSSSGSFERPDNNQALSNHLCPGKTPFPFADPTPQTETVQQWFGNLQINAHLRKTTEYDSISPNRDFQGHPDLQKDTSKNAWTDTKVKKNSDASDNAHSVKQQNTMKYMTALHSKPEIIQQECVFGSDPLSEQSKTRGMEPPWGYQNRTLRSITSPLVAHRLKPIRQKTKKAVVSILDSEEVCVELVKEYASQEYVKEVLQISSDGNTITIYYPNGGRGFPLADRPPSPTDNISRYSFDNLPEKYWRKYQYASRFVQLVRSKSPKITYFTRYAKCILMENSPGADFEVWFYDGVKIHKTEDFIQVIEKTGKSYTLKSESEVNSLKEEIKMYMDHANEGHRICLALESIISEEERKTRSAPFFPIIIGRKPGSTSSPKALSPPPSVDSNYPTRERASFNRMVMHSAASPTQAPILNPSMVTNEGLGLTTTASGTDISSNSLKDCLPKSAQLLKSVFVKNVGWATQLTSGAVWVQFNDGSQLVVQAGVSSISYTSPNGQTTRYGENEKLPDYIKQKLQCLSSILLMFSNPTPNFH

Sequence of Calcium/calmodulin-dependent protein kinase kinase 2 (Homo sapiens) (Q96RR4 2-588 limits assumed): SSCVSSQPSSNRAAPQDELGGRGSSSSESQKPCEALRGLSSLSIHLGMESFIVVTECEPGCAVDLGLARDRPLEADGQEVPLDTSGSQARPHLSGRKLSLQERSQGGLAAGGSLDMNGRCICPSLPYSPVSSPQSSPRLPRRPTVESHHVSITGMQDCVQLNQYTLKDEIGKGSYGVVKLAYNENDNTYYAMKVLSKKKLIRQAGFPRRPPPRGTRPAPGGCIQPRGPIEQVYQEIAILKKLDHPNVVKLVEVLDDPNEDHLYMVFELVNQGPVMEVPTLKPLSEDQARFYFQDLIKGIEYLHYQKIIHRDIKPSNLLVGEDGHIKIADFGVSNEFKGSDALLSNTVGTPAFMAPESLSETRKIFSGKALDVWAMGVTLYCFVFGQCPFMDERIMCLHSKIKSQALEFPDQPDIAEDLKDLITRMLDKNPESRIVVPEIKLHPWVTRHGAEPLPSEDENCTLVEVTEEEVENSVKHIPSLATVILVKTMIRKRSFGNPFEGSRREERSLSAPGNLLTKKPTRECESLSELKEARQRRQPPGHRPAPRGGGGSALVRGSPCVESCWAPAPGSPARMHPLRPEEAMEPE
Sequence of Adenosine receptor A2a (P29274 whole entry): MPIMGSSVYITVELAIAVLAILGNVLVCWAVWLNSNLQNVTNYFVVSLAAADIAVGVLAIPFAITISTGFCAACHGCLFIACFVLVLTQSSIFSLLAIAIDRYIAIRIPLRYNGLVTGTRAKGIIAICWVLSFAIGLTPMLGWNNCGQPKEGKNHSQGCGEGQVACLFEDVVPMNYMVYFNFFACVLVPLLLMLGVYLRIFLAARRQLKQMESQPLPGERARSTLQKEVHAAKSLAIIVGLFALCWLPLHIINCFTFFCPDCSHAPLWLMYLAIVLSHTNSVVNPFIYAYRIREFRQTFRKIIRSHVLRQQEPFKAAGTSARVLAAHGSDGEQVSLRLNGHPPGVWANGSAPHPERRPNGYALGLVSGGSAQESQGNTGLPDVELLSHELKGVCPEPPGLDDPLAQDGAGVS
Sequence of Ribosomal protein S6 kinase alpha-5 (Homo sapiens) (O75582 whole entry, looked up): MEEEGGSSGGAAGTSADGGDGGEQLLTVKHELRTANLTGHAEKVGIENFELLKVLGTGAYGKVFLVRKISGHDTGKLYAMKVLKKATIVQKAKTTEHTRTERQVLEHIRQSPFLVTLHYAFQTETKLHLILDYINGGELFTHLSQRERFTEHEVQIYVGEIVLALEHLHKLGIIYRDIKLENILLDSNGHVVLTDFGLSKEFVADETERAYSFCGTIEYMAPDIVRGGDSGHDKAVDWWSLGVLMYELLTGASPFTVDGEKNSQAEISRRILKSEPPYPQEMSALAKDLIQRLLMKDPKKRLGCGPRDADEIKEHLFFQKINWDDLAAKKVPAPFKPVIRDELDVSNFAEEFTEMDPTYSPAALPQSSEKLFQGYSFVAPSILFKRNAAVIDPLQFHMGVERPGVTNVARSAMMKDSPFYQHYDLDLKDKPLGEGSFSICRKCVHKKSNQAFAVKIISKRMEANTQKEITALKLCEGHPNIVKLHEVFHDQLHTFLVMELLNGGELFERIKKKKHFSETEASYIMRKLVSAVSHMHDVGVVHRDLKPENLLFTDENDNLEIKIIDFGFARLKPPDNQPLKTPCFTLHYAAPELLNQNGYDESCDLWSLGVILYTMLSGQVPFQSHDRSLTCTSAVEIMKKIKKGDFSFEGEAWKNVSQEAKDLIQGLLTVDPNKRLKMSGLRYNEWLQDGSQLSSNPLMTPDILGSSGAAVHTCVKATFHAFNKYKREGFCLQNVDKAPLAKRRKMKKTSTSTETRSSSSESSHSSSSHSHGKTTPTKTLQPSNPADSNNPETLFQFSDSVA
Sequence of Mast/stem cell growth factor receptor Kit (Homo sapiens), P10721 [V559D,T670I] (P10721 whole entry V559D/T670I): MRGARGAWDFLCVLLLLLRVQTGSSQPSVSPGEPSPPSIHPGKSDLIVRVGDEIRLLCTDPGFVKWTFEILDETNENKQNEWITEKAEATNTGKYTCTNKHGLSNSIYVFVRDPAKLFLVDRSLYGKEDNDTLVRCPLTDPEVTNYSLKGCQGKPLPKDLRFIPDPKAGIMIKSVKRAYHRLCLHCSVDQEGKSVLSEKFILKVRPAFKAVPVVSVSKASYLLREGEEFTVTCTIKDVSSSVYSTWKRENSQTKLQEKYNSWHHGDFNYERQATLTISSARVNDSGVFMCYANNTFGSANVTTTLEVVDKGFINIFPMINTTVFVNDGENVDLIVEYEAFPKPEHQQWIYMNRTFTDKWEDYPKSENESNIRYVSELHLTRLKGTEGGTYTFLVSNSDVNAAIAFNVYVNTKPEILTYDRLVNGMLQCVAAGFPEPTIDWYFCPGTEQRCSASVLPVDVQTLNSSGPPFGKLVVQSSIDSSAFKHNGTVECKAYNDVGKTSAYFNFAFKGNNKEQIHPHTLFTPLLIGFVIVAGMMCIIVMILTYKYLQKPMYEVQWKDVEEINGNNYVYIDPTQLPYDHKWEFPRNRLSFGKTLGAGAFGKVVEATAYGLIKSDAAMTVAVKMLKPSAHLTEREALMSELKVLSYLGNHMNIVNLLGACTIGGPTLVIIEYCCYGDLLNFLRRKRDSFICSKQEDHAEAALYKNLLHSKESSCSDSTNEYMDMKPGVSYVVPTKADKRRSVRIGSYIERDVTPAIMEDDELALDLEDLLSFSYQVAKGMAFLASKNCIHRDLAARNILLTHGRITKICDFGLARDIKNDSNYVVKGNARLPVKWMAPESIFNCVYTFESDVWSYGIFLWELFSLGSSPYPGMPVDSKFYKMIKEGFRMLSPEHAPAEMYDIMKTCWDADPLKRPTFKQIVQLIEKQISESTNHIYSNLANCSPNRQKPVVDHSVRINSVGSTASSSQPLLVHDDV
Sequence of Epidermal growth factor receptor (P00533 whole entry): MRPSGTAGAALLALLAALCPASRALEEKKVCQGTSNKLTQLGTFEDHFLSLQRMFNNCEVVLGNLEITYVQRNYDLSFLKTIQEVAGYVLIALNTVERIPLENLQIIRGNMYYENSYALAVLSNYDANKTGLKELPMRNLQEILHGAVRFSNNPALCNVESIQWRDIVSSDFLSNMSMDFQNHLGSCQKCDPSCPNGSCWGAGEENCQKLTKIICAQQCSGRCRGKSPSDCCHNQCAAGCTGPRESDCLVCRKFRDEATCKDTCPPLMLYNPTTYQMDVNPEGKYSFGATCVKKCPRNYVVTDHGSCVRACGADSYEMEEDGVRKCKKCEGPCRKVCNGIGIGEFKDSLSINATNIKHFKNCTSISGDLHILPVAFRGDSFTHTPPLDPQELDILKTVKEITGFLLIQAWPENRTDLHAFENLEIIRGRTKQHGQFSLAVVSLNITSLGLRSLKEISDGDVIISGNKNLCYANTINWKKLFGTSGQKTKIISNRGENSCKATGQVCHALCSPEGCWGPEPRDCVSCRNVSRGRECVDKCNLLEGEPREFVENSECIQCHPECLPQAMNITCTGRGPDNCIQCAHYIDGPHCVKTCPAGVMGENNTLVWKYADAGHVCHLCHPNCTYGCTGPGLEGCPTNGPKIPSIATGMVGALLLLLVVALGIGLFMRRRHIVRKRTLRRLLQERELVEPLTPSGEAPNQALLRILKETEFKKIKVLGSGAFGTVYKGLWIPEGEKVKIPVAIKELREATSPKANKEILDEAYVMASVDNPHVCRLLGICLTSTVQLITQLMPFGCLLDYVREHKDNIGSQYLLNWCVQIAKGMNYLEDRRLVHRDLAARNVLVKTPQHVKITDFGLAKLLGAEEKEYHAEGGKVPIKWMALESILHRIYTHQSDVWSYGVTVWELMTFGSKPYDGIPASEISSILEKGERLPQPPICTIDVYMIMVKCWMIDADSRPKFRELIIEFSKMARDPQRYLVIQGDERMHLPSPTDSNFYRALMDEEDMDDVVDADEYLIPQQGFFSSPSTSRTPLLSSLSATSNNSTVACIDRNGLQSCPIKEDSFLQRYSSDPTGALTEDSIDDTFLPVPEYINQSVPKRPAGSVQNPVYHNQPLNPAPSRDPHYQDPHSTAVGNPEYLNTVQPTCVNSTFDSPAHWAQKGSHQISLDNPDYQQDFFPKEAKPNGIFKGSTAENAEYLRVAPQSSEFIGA
Sequence of Protein-tyrosine kinase 6 (Q13882 whole entry, looked up): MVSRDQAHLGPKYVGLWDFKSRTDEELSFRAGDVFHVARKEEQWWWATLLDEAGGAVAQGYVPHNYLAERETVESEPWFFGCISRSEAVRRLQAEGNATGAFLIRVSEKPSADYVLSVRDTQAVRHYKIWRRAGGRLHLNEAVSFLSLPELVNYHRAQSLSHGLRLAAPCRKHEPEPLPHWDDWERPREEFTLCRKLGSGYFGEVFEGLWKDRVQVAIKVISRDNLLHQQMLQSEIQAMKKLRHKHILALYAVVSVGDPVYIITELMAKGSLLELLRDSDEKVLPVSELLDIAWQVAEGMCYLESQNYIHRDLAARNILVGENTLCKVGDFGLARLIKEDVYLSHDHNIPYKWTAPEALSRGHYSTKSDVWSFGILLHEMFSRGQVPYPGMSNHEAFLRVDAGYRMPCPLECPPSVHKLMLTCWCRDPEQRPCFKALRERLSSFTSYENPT

Cc1cc(C)cc([C@@H]2c3cc(C)ccc3NC(=O)CN2C(=O)c2ccc(Br)s2)c1
% of inhibition (Adenosine receptor A2a): 2%

CCN(CC)CCCCNc1ncc2cc(-c3cc(OC)cc(OC)c3)c(NC(=O)NC(C)(C)C)nc2n1
% of control [1]: 100%

Nc1cnc(N2CCc3cc(S(=O)(=O)Nc4c(F)cc(Cl)cc4F)cc(N4CCCC4=O)c32)nc1 [TP-020n]
% of control [2]: 100%

Cc1cc([C@@H](C)Nc2ccccc2C(=O)O)c2nc(N3CCOCC3)cc(=O)n2c1 [AZD-6482]
% of control [3]: 100%
% of control [4]: 96%
% of control [5]: 75%

Cc1cc(CN)cc(C)c1-c1ncn(C)c1-c1cncn1C
% activity ([6]; at 1 µM): > 90%
% activity ([6]; at 10 µM): > 80%

COc1cc(N(C)c2ccnc3ccc(C(F)(F)F)cc23)cc(OC)c1OC
% binding [7]: 85%

COc1cc(Nc2nc(C)cc(-c3cnn4nc(OC)ccc34)n2)cc(C(F)(F)F)c1
% of control [8]: 49%
